Assay results from patent publication US7355063B2, “Shogaol compound and tyrosinase activity inhibitor comprising the compound” (Toagosei Co., Ltd., priority 2003, dated 2008).

Columns and labels:
[1] = Test of scavenging DPPH radical (Test Example 8, 517 nm); conditions: final concentration of 10 μg/mL; 20 minutes, room temperature
Experimental: Using the compound 7 obtained in Example 2 as well as dl-α-tocopherol (manufactured by Tokyo Kasei Kogyo Co., Ltd.) and butylhydroxytoluene (BHT) as comparative controls, a test of scavenging DDPH (1,1-diphenyl-2-picrylhydrazyl) radical, a stable radical, was carried out.
1 ml of 200 μM DPPH ethanol solution was added to 800 μl of 100 mM Tris-HCl buffer (pH 7.4) and 200 μl of an ethanol solution of the compound 7 (a final concentration of 10 μg/mL), followed by sufficient stirring. After the resulting mixture was allowed to stand in a dark place at room temperature for 20 minutes, the absorbance at 517 nm was measured (absorbance of the test solution)
The compound 13 of the invention as well as dl-α-tocopherol and butylhydroxytoluene as a known radical scavenger were similarly tested.
As a control, 800 μl of 100 mM Tris-HCl buffer (pH 7.4), 200 μl of ethanol, and 1 ml of 200 μM DPPH ethanol solution were used in the same manner as described above and the absorbance was measured (absorbance of the control solution).
With the individual compounds, the same measurement was repeated three times, and the mean value was inserted in the following formula to calculate a DPPH radical-scavenging ratio (%). DPPH radical-scavenging ratio (%)=[1−(absorbance of sample solution/absorbance of control solution)]×100

[2] = Test of scavenging DPPH radical (Test Example 9, microplate reader, 540 nm); conditions: final concentration of 25 μg/mL; 20 minutes, room temperature
From the text: Using the compound 36 obtained in Example 20, the compound 37 obtained in Example 21, the compound 38 obtained in Example 22, the compound 39 obtained in Example 23, the compound 40 obtained in Example 24, the compound 42 obtained in Example 26, the compound 45 obtained in Example 29, the compound 46 obtained in Example 30, the compound 48 obtained in Example 32 and, as a comparative control, dl-α-tocopherol (manufactured by Tokyo Kasei Kogyo Co., Ltd.), a test of scavenging DDPH (1,1-diphenyl-2-picrylhydrazyl) radical, a stable radical, was carried out.
100 μl of 800 μM DPPH ethanol solution was added to 80 μl of 100 mM Tris-HCl buffer (pH 7.4) and 20 μl of an ethanol solution of the compound 36 (final concentration of 25 μg/mL), followed by sufficient stirring. After the resulting mixture was allowed to stand in a dark place at room temperature for 20 minutes, the absorbance at 540 nm was measured on a microplate reader (absorbance of the test solution).
The compounds 37, 38, 39, 40, 42, 45, 46, and 48 of the invention as well as dl-α-tocopherol as a known radical scavenger were similarly tested.
As a control, using 80 μl of 100 mM Tris-HCl buffer (pH 7.4), 20 μl of ethanol, and 100 μl of 800 μM DPPH ethanol solution, the same operation was carried out as described above and the absorbance was measured (absorbance of the control solution).
With the individual compounds, the same measurement was repeated four times, and the mean value was inserted in the following formula to calculate a DPPH radical-scavenging ratio. DPPH radical-scavenging ratio (%)=[1−(absorbance of sample solution/absorbance of control solution)]×100

[3] = Test of suppressing lipid peroxide formation using linoleic acid
Experimental: Using the compound 7 obtained in Example 2, the compound 38 obtained in Example 22, the compound 40 obtained in Example 24, the compound 42 obtained in Example 26, the compound 46 obtained in Example 30, and as a comparative control, dl-α-tocopherol (manufactured by Tokyo Kasei Kogyo Co., Ltd.), a test of suppressing lipid peroxide formation was carried out using linoleic acid.
(1) After ethanol (2.0 g) was added to linoleic acid (0.2 g, manufactured by Tokyo Kasei Kogyo Co., Ltd.), the compound 7 (0.01 g), and a surfactant Nissan OT-221 (0.4 g, manufactured by NOF Corporation) placed in a 50-ml screw vial and they was dissolved one another, distilled water (17.39 g) was added to the resulting solution and the whole was stirred. Then, the whole was tightly sealed and allowed to stand in a constant-temperature chamber at 40° C. Such sample was prepared in a duplex manner.
The same operation was carried out on the compounds 38, 40, 42, 46, dl-α-tocopherol, and a sample with addition of no test compound (blank).
(2) The amount of remaining linoleic acid after one week, 2 weeks, 3 weeks, and 4 weeks from the start of the test was quantitatively determined by HPLC.
The HPLC analytical conditions were as follows: Wavelength for detection: 210 nm; Mobile phase: a mixed solution of a Mc Ilvaine buffer adjusted to pH 2.6 and methanol (10:90); Flow rate: 1 ml/min; Column: ODS-80Ts (4.6 φmm×150 mm); and Column temperature: 40° C.
(3) Quantitative determination by HPLC was carried out on each sample one time. The ratio of remaining linoleic acid was calculated on the basis of the mean value of values obtained in two-times measurement.

mushroom tyrosinase = test: Tyrosinase activity inhibition test using L-dopa as substrate (Test Examples 3 to 6, microplate reader, 490 nm); assay type: biochemical
Experimental: Using the compound 37 obtained in Example 21, the compound 38 obtained in Example 22, the compound 39 obtained in Example 23, and arbutin (manufactured by Tokyo Kasei Kogyo Co., Ltd.) as a comparative control, a tyrosinase activity inhibition test was carried out using L-dopa as a substrate.
The specific test procedures are as follows. • (1) 72 μl of a phosphate buffer prepared by dissolving 1.000 g of sodium dihydrogen phosphate and 1.186 g of disodium hydrogen phosphate in 500 ml of distilled water, 80 μl of a substrate solution prepared by dissolving 32.7 mg of L-DOPA in 200 ml of distilled water, and 8 μl of a test solution prepared by dissolving the test compound in dimethyl sulfoxide were mixed together. • (2) 80 μl of an enzyme solution prepared by dissolving 3.0 mg (2400 units; manufactured by Sigma Corporation) of mushroom tyrosinase in 7.0 ml of distilled water and diluting the solution with the above phosphate buffer so as to make it five times in amount was added to the solution prepared in (1), and the whole was stirred for 15 seconds. The resulting solution was maintained at 25° C., and the absorbance at 490 nm was measured by a microplate reader one minute and 45 seconds later and 2 minutes and 45 seconds later. • (3) The test operations in the above (1) and (2) were conducted four times for the individual test compounds and blank test (only dimethyl sulfoxide), and the resulting numeric value was inserted in the following calculation formula and a mean value thereof was regarded as a tyrosinase activity inhibition ratio (%). Tyrosinase activity inhibition ratio (%)=[(T^1−T^2)/T^1]×100 • T^1=difference in absorbance of solution with addition of no test compound between 2 minutes and 45 seconds later and one minute and 45 seconds later • T^2=difference in absorbance of solution with addition of test compound was added between 2 minutes and 45 seconds later and one minute and 45 seconds later
Using the compound 42 obtained in Example 26, the compound 45 obtained in Example 29, the compound 46 obtained in Example 30, and arbutin (manufactured by Tokyo Kasei Kogyo Co., Ltd.) as a comparative control, a tyrosinase activity inhibition test was carried out using L-dopa as a substrate. The test procedure was in accordance with Test Example 3.
Using the compound 34 obtained in Example 18, the compound 47 obtained in Example 31, and arbutin (manufactured by Tokyo Kasei Kogyo Co., Ltd.) as a comparative control, a tyrosinase activity inhibition test was carried out using L-dopa as a substrate. The test procedure was in accordance with Test Example 3.
Using the compound 48 obtained in Example 32 and arbutin (manufactured by Tokyo Kasei Kogyo Co., Ltd.) as a comparative control, a tyrosinase activity inhibition test was carried out using L-dopa as a substrate. The test procedure was in accordance with Test Example 3.

Structure (SMILES): Cc1c(C)c2c(c(C)c1O)CCC(C)(CCCC(C)CCCC(C)CCCC(C)C)O2 (racemic) [Tocopherol, dl-α-tocopherol]
- DPPH radical-scavenging ratio (%) [1]: 28.4%
- DPPH radical-scavenging ratio (%) [2]: 14.9%
- Ratio of remaining linoleic acid (%) ([3]; After 1 week at 40° C.): 88.7%
- Ratio of remaining linoleic acid (%) ([3]; After 2 weeks at 40° C.): 81.3%
- Ratio of remaining linoleic acid (%) ([3]; After 3 weeks at 40° C.): 69.7%
- Ratio of remaining linoleic acid (%) ([3]; After 4 weeks at 40° C.): 50.0%

Structure (SMILES): COc1cc(CCC(=O)CCCCCCCCCO)ccc1O [Compound 46]
- Tyrosinase activity inhibition ratio (%) (mushroom tyrosinase; 0.031 mg/mL, Table 4): 14.9%
- Tyrosinase activity inhibition ratio (%) (mushroom tyrosinase; 0.063 mg/mL, Table 4): 23.8%
- Tyrosinase activity inhibition ratio (%) (mushroom tyrosinase; 0.125 mg/mL, Table 4): 36.9%
- DPPH radical-scavenging ratio (%) [2]: 39.4%

Structure (SMILES): COc1cc(CCC(O)CC(CCCCCCO)OC)ccc1O (stereo not shown) [Compound 48]
- Tyrosinase activity inhibition ratio (%) (mushroom tyrosinase; 0.25 mg/mL, Table 6, 0.50 mg/mL): 38.2%
- Tyrosinase activity inhibition ratio (%) (mushroom tyrosinase; 0.5 mg/mL, Table 6, 0.50 mg/mL): 47.1%
- DPPH radical-scavenging ratio (%) [2]: 33.5%
